Laboratory results: patent US20230140216A1, “COMBINATION THERAPY FOR TREATING MPS1” (GAIN THERAPEUTICS SA, priority 2020, published 2023)

Target: T1, Recombinant human α-L-iduronidase protein (Homo sapiens, UniProt P35475)
T1 construct: purchased R&D
T1 sequence (P35475 28-653): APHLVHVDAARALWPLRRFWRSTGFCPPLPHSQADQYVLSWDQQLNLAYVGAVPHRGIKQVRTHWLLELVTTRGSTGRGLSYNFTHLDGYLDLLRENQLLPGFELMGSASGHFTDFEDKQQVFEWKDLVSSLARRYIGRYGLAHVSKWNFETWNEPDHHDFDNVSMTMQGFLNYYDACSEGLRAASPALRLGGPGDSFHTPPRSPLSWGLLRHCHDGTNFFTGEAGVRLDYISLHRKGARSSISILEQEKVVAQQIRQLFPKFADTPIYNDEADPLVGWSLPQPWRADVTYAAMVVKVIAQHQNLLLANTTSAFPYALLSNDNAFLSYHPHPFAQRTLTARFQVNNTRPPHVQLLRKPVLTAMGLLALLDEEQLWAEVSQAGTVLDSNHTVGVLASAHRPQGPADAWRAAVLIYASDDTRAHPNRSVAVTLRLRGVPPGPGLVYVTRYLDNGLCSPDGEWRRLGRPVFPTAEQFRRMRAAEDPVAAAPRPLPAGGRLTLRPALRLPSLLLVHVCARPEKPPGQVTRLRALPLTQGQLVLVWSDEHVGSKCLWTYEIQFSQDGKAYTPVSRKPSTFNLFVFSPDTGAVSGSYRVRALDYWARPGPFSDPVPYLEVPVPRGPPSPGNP
Experiment: Differential scanning fluorimetry (DSF) thermal stabilization;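 further: Classes count stabilization of α-L-iduronidase despite the GALC label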
Type: binding
Details: ΔTm class
Procedure: The capacity of Compounds of the Disclosure to stabilize α-L-iduronidase was assessed by differential scanning fluorimetry technique. The thermal denaturation of purified human native enzyme was monitored in the presence of the extrinsic fluorescent probe SYPRO Orange (Sigma-Aldrich, St. Louis, MO). The tested compounds were dissolved in 100% DMSO and diluted into the protein buffer to achieve final concentrations of 1% DMSO.
Recombinant human α-L-iduronidase protein (purchased from R&D) 12.5 µL of 1.5 µM in 100 mM Hepes 20 mM MgCl2 pH 7 (protein final concentration 0.75 µM) with Sypro Orange 10X and 12.5 µl of the different compound solutions were dispensed into 96-well PCR-plates. The intensity of SYPRO Orange fluorescence after a systematic increase of temperature was monitored in the Roche LightCycler® 480 II device (Roche Diagnostics).
The capacity to stabilize α-L-iduronidase is denoted as follows: • ΔTm GALC > 1 is shown as A; • ΔTm GALC between 0.5 and 1 is shown as B; • ΔTm GALC between 0.1 and 0.5 is shown as C; and • ΔTm GALC less than 0.1 is shown as D.

[1] = commercially available Examples 8-37

SMILES | DSF Activity range [1] | DSF Activity range (synthetized Examples 38-94) | also measured
CN(CC(=O)Nc1cccc(F)c1)Cc1nc2c(cnn2C)c(=O)[nH]1 [Example 32, N-(3-fluorophenyl)-2-(methyl((1-methyl-4-oxo-4,5-dihydro-1H-pyrazolo[3,4-d]pyrimidin-6-yl)methyl)amino)acetamide] | D (ΔTm GALC less than 0.1 is shown as D) |  | 
CN(CC(=O)N1CCc2ccccc21)Cc1nc2ccc(F)cc2c(=O)[nH]1 [Example 57, 6-fluoro-2-(((2-(indolin-1-yl)-2-oxoethyl)(methyl)amino)methyl)quinazolin-4(3H)-one] |  | B (ΔTm GALC between 0.5 and 1 is shown as B) | 
CN(CC(=O)N1Cc2ccccc2C1)Cc1nc2cc(F)ccc2c(=O)[nH]1 [Example 71, 7-fluoro-2-(((2-(isoindolin-2-yl)-2-oxoethyl)(methyl)amino)methyl)quinazolin-4(3H)-one] |  | A (ΔTm GALC > 1 is shown as A) | 
CCN(CC(=O)N(C)c1c(Cl)cccc1Cl)Cc1nc2ccc(F)cc2c(=O)[nH]1 [Example 69, 2-(N-ethyl-N-((6-fluoro-3,4-dihydro-4-oxoquinazolin-2-yl)methyl)amino)-N-(2,6-dichlorophenyl)-N-methylacetamide] |  | C (ΔTm GALC between 0.1 and 0.5 is shown as C) | 
CCN(CC(=O)N(C)c1c(Cl)cccc1Cl)Cc1nc2c(C)csc2c(=O)[nH]1 [Example 49, N-(2,6-dichlorophenyl)-2-(ethyl((7-methyl-4-oxo-3,4-dihydrothieno[3,2-d]pyrimidin-2-yl)methyl)amino)-N-methylacetamide] |  | C (ΔTm GALC between 0.1 and 0.5 is shown as C) | 
CCCN(CC(=O)N1CCc2ccccc21)Cc1nc2ccsc2c(=O)[nH]1 [Example 15, 2-(((2-(indolin-1-yl)-2-oxoethyl)(propyl)amino)methyl)thieno[3,2-d]pyrimidin-4(3H)-one] | D (ΔTm GALC less than 0.1 is shown as D) |  | 
CCCN(CC(=O)N(C)c1ccccc1Cl)Cc1nc2ccc(C)cc2c(=O)[nH]1 [Example 80] |  | B (ΔTm GALC between 0.5 and 1 is shown as B) | 
Cc1ccc2c(=O)[nH]c(CN(C)CC(=O)N3CCc4ccccc43)nc2c1 [Example 86] |  | D (ΔTm GALC less than 0.1 is shown as D) | 
CN(CC(=O)Nc1ccccc1)Cc1nc2c(cnn2C)c(=O)[nH]1 [Example 33, 2-(methyl((1-methyl-4-oxo-4,5-dihydro-1H-pyrazolo[3,4-d]pyrimidin-6-yl)methyl)amino)-N-phenylacetamide] | C (ΔTm GALC between 0.1 and 0.5 is shown as C) |  | 
CCN(CC(=O)Nc1ccccc1)Cc1nc2ccccc2c(=O)[nH]1 [Example 19, 2-(ethyl((4-oxo-3,4-dihydroquinazolin-2-yl)methyl)amino)-N-phenylacetamide] | C (ΔTm GALC between 0.1 and 0.5 is shown as C) |  | 
CN(CC(=O)N(C)c1ccccc1Cl)Cc1nc(O)c2cnn(-c3ccccc3)c2n1 [Example 1, N-(2-chlorophenyl)-2-(((4-hydroxy-1-phenyl-1H-pyrazolo[3,4-d]pyrimidin-6-yl)methyl)(methyl)amino)-N-methylacetamide] |  |  | DSF Activity range (synthetized Examples 1-7): A (ΔTm GALC > 1 is shown as A)
Cc1ccccc1-n1ncc2c(O)nc(CN(C)CC(=O)N(C)c3ccccc3Cl)nc21 [Example 2, N-(2-chlorophenyl)-2-(((4-hydroxy-1-o-tolyl-1H-pyrazolo[3,4-d]pyrimidin-6-yl)methyl)(methyl)amino)-N-methylacetamide] |  |  | DSF Activity range (synthetized Examples 1-7): C (ΔTm GALC between 0.1 and 0.5 is shown as C)
Cc1ccc2c(=O)[nH]c(CN(C)CC(=O)N(C)c3ccccc3Cl)nc2c1 [Example 70, 2-(N-((3,4-dihydro-7-methyl-4-oxoquinazolin-2-yl)methyl)-N-methylamino)-N-(2-chlorophenyl)-N-methylacetamide] |  | B (ΔTm GALC between 0.5 and 1 is shown as B) | 
Cc1ccc2nc(CN(C)CC(=O)N3CCc4ccccc43)[nH]c(=O)c2c1 [Example 81] |  | C (ΔTm GALC between 0.1 and 0.5 is shown as C) | 
Cc1cccc(C)c1NC(=O)CN(C)Cc1nc2ccccc2c(=O)[nH]1 [Example 23, N-(2,6-dimethylphenyl)-2-(methyl((4-oxo-3,4-dihydroquinazolin-2-yl)methyl)amino)acetamide] | B (ΔTm GALC between 0.5 and 1 is shown as B) |  | 
COCCNC(=O)CN(C)Cc1nc2c(cnn2C)c(=O)[nH]1 [Example 34, N-(2-methoxyethyl)-2-(methyl((1-methyl-4-oxo-4,5-dihydro-1H-pyrazolo[3,4-d]pyrimidin-6-yl)methyl)amino)acetamide] | D (ΔTm GALC less than 0.1 is shown as D) |  | 

SMILES | DSF Activity range [1] | DSF Activity range (synthetized Examples 38-94) | also measured
Cc1csc2c(=O)[nH]c(CN(C)CC(=O)N3Cc4ccccc4C3)nc12 [Example 38] |  | B (ΔTm GALC between 0.5 and 1 is shown as B) | 
CN(CC(=O)N1CCCc2ccccc21)Cc1nc2ccccc2c(=O)[nH]1 [Example 29, 2-(((2-(3,4-dihydroquinolin-1(2H)-yl)-2-oxoethyl)(methyl)amino)methyl)quinazolin-4(3H)-one] | B (ΔTm GALC between 0.5 and 1 is shown as B) |  | 
CN(CC(=O)N(C)c1cccc(F)c1)Cc1nc2ccc(F)cc2c(=O)[nH]1 [Example 74] |  | B (ΔTm GALC between 0.5 and 1 is shown as B) | 
Cc1cc2nc(CN(C)CC(=O)N(C)c3ccc(Cl)c(Cl)c3)[nH]c(=O)c2s1 [Example 55, N-(3,4-dichlorophenyl)-N-methyl-2-(methyl((6-methyl-4-oxo-3,4-dihydrothieno[3,2-d]pyrimidin-2-yl)methyl)amino)acetamide] |  | C (ΔTm GALC between 0.1 and 0.5 is shown as C) | 
Cc1csc2c(=O)[nH]c(CN(CC(=O)N(C)c3ccccc3Cl)C3CC3)nc12 [Example 43] |  | D (ΔTm GALC less than 0.1 is shown as D) | 
CCN(CC(=O)N(C)c1ccccc1Cl)Cc1nc2cc(F)ccc2c(=O)[nH]1.Cl [Example 64] |  | B (ΔTm GALC between 0.5 and 1 is shown as B) | 
CCN(CC(=O)N(C)c1ccccc1Cl)Cc1nc2ccc(F)cc2c(=O)[nH]1 [Example 60] |  | B (ΔTm GALC between 0.5 and 1 is shown as B) | 
COc1cccc(-n2ncc3c(O)nc(CN(C)CC(=O)N(C)c4ccccc4Cl)nc32)c1 [Example 6, N-(2-chlorophenyl)-2-(((4-hydroxy-1-(3-methoxyphenyl)-1H-pyrazolo[3,4-d]pyrimidin-6-yl)methyl)(methyl)amino)-N-methylacetamide] |  |  | DSF Activity range (synthetized Examples 1-7): B (ΔTm GALC between 0.5 and 1 is shown as B)
CCN(CC(=O)NCC(C)C)Cc1nc2ccccc2c(=O)[nH]1 [Example 26, 2-(ethyl((4-oxo-3,4-dihydroquinazolin-2-yl)methyl)amino)-N-isobutylacetamide] | B (ΔTm GALC between 0.5 and 1 is shown as B) |  | 
CCN(CC(=O)N(C)c1c(Cl)cccc1Cl)Cc1nc2c(cnn2C)c(=O)[nH]1 [Example 93, 2-(N-ethyl-N-((4,5-dihydro-l-methyl-4-oxo-1H-pyrazolo[3,4-d]pylimidin-6-yl)methyl)amino)-N-(2,6-dichlorophenyl)-N-methylacetamide] |  | C (ΔTm GALC between 0.1 and 0.5 is shown as C) | 
CN(CC(=O)Nc1ccccc1Cl)Cc1nc2ccsc2c(=O)[nH]1 [Example 12, N-(2-chlorophenyl)-2-(methyl((4-oxo-3,4-dihydrothieno[3,2-d]pyrimidin-2-yl)methyl)amino)acetamide] | B (ΔTm GALC between 0.5 and 1 is shown as B) |  | 
Cc1csc2c(=O)[nH]c(CN(C)CC(=O)N(C)c3cccc(F)c3)nc12 [Example 50] |  | B (ΔTm GALC between 0.5 and 1 is shown as B) | 
CN(CC(=O)N(C)c1ccc(Cl)c(Cl)c1)Cc1nc2ccc(F)cc2c(=O)[nH]1 [Example 58, N-(3,4-dichlorophenyl)-2-(((6-fluoro-4-oxo-3,4-dihydroquinazolin-2-yl)methyl)(methyl)amino)-N-methylacetamide] |  | B (ΔTm GALC between 0.5 and 1 is shown as B) | 
CCCN(CC(=O)N(C)c1ccccc1Cl)Cc1nc2cc(F)ccc2c(=O)[nH]1 [Example 76] |  | D (ΔTm GALC less than 0.1 is shown as D) | 
CN(CC(=O)Nc1cccc(F)c1)Cc1nc2ccsc2c(=O)[nH]1 [Example 9, N-(3-fluorophenyl)-2-(methyl((4-oxo-3,4-dihydrothieno[3,2-d]pyrimidin-2-yl)methyl)amino)acetamide] | A (ΔTm GALC > 1 is shown as A) |  | 
